From patent US20230000813A1, “COMPOUND FOR THE TREATMENT OF BOVINE OR SWINE RESPIRATORY DISEASE” (Intervet Inc., priority 2016, published 2023)
Converted amounts (≈) assume the structure as drawn.

What was measured:
Test in all cases: MIC50/MIC90, broth-microdilution, European respiratory tract isolates
Type in all cases: cell-based
[1] = system: 20 isolates of Histophilus (H.) somni
Procedure: (§1) The in vitro activity of compounds against 20 isolates of Actinobacillus (A.) pleuropneumoniae, 20 of Bordetella (B.) bronchiseptica, 20 of Histophilus (H.) somni, 40 of Mannheimia (M.) haemolytica and 40 of Pasteurella (P.) multocida collected in different European countries were determined. All bacteria were isolated from the respiratory tract of swine and cattle suffering from respiratory disease. All isolates were epidemiologically unrelated as specified by the different suppliers.
(§2) The minimum inhibitory concentrations (MIC) of compounds according to the invention were determined by the broth-microdilution method according to CLSI document VET01-A4.
(§3) Microdilution trays containing a doubling dilution series of the test compounds were used for the tests.
(§4) The MIC results were interpreted according to the CLSI documents VET01-S3. The lowest concentration of compound at which no visible growth (i.e. no turbidity) detected by the unaided eye was recorded as the MIC.

[2] = system: 20 isolates of Actinobacillus (A.) pleuropneumoniae
Procedure: as §1, §2, §3, §4

[3] = system: 40 isolates of Pasteurella (P.) multocida
Procedure: as §1, §2, §3, §4

[4] = system: 40 isolates of Mannheimia (M.) haemolytica
Procedure: as §1, §2, §3, §4

[5] = system: 20 isolates of Bordetella (B.) bronchiseptica
Procedure: as §1, §2, §3, §4

`CC(C)(N)C(NC(=O)c1ccc(C#Cc2ccc(CNC3CC3)cc2)cc1)C(=O)NO` (stereo not shown) [C. 329] gave an MIC50 [1] of 0.25 µg/mL (≈ 0.595 µM), an MIC90 [1] of 0.25 µg/mL (≈ 0.595 µM) and an MIC50 [2] of 0.5 µg/mL (≈ 1.19 µM). It also gave an MIC90 [2] of 0.5 µg/mL (≈ 1.19 µM), an MIC50 [3] of 0.032 µg/mL (≈ 0.0761 µM) and an MIC90 [3] of 0.032 µg/mL (≈ 0.0761 µM). For the same compound, the MIC50 [4] was 0.5 µg/mL (≈ 1.19 µM), the MIC90 [4] was 1 µg/mL (≈ 2.38 µM) and the MIC50 [5] was 2 µg/mL (≈ 4.76 µM). For the same compound, the MIC90 [5] was 4 µg/mL (≈ 9.51 µM).
